These results are taken from patent EP0494754A1, “3-hydroxypyridin-4-one derivatives as pharmaceutical compositions” (BRITISH TECHNOLOGY GROUP LTD, priority 1991, dated 1992).

What all share (format): cell-based
Assay [1] has as its system P. falciparum. Kind of assay: Inhibition of growth of P. falciparum in red cell culture (tritiated hypoxanthine uptake, continuous exposure to chelator). The protocol:
(A) An uncloned strain of P. falciparum, ITO4, was grown on blood group O red cells using a modification of the method described by Trager et al in Science, 1976, […], 673. An atmopshere consisting of 1% oxygen, 3% carbon dioxide and 96% nitrogen was maintained throughout the experiments. Red cells were suspended at a hematocrit of 3% in RPMI 1640 that had been supplemented with 10% v/v human serum, 2 g/l glucose, 4 mM NaOH, 25 µg/ml gentamicin, 1.9 mM glutamine and 25 mM HEPES to form complete medium. For experimental purposes the red cells were then further diluted with the same medium to a final hematocrit of 1.5%. Synchronised parasite cultures were obtained using a combination of sorbitol lysis and gelatin flotation, as described respectively by Jensen et al in Am. J. Trop. Med. Hyg., 1978, 27, 1274 and Lambros et al in J. Parasitol., 1979, 65, 418, thus ensuring that only young ring forms remained. The starting parasitemia in each experiment was between 0.1 and 0.5%.
A red cell suspension containing only recently synchronised ring parasites was treated with 0.2 µCi of tritiated hypoxanthine per 100 µl of red cell suspension and one of ten chelating agents as identified in the Table was added in complete medium to the suspension in an amount such as to produce an iron binding concentration of 100 µmol of iron per litre (all of the chelators combine with iron in a ratio of 3 moles of chelator:1 mole of iron apart from the chelator number 10, desferrioxamine, which combines in a 1:1 molar ratio). The test cultures were immediately dispersed in 200 µl aliquots into 96 well microculture plates. Each chelator was tested in three or more wells and the whole experiment was carried out at least twice for each chelator. Control cultures were used in each experiment which contained no iron chelator.
The growth of the P. falciparum parasites was assessed both by light microscopy examination of thin films that had been stained with Giemsa and through measurement of tritiated hypoxanthine uptake, the cell cultures being harvested onto glass fibre filters and radioactivity, in terms of beta emission from each well, being measured in a flat bed liquid scintillation counter as described by Potter et al in Phys. Med. Biol., 1986, 31(4), 361.
The chelators tested consisted of 1-(2′-carboxyethyl)-3-hydroxy-2-methylpyridin-4-one (R₁ = CH₂CH₂CO₂H, R₂ = CH₃, R₃ = R₄ = H; compound 1) and, for the purposes of comparison with this chelator, nine other chelators not of formula (I) as defined hereinbefore, of which compounds 2 to 9 are 3-hydroxypyridin-4-ones and compound 10 is desferrioxamine. […] These findings were supported by a morphological examination of red cells sampled from the cultures. […] (B) The effect of using different dosage levels than the 100 µmol/l level used in (A) was studied employing the same procedure but using four dosage levels of 10 µmol/l, 25 µmol/l, 50 µmol/l and […]. Only the eight chelators which produced an inhibitory effect at 100 µmol/l were studied and controls containing no iron chelator were again employed.

The subject of assay [2] is P. falciparum. Kind of assay: Red cell reinvasion at the beginning of the second parasite cycle (light microscopy). The procedure:
A study was made of red cells from cultures involving various dosage levels harvested at the beginning of the second parasite cycle, when young rings could be identified in untreated control cultures in order to determine whether or not red cell reinvasion had occurred in the cultures that had been exposed to a chelator. […] However, for the 3-hydroxypyridin-4-one compounds 1 to 6 and 9, young ring parasites were frequently found after incubation at a 25 µmol/l dosage level of the chelator and were always found at a 10 µmol/l dosage level, no significant differences being seen between the different compounds. At 50 µmol/l and 100 µmol/l no evidence of reinvasion was found. Thus, although the 3-hydroxypyridin-4-ones do produce growth inhibition at the lower dosage levels of 10 µmol/l and 25 µmol/l, higher levels than this are required to produce a cytocidal action.

Assay [3] has as its system MEL cells, clone 585. In words: Inhibition of growth of murine erythroleukaemia (MEL) cells, cell counting. The note with it: 50 µmol/l iron binding concentration; after 30 hours; Figure 2. The procedure: MEL cells, clone 585, were grown in suspension culture at 37°C in RPMI 1640 that had been supplemented with 13% v/v foetal calf serum, 25 µl/ml gentamicin, 1.9 mM glutamine and 2% diaminopurine as described by Peto et al in Br. J. Haematol., 1983, 54, 623. The cultures were maintained in an atmosphere containing 5% carbon dioxide and passaged every 3-4 days at a seeding concentration of 1-2 x 10⁴/ml to ensure that the cells were continually in logarithmic growth phase. Under these conditions, the doubling time for cell growth was 30-36 hours.
10 ml volumes of cell suspension were incubated in 50 ml flasks with each of the ten chelators identified in the Table at a 50 µmol/l iron binding concentration, controls being employed which contained no chelator. 400 µl aliquots were removed in duplicate for growth assessment at 24 hour intervals over the next four days. The experiment was repeated on three separate occasions, the initial cell concentration in each case being 2-3 x 10⁴ cells/ml. Cell growth was assessed both by examination of cultures using light microscopy and by cell counting. At various times throughout each experiment, 400 µl culture was added to 19.6 ml Isoton and the number of particles counted using a Coulter Counter ZN set at threshold 20 and attenuation 0.4
The effect of the different chelators on growth of the MEL cells after 30 hours was compared with the effect produced after a similar time by the same chelators at a 50 µmol/l iron binding concentration using the procedure described in Example 2(A). The results are illustrated in Figure 2. It will be seen that the compounds 2, 3, 4, 5, 6, 9 and 10 inhibited growth of MEL cells and of P. falciparum, the minimum growth inhibition being 80% and 70% respectively. […] When these two groups of chelators were examined together a close linear correlation (r = 0.978) was found between the degree of growth inhibition produced in both types of cell for each chelator studied. The compound 1 was distinguished from all of the other chelators in being the only one to have no significant inhibitory effect on the growth of MEL cells (<10%) whilst at the same time producing a substantial inhibitory effect on the growth of P. falciparum (>75%).

Turning to `CC(=O)N(O)CCCCCNC(=O)CCC(=O)N(O)CCCCCNC(=O)CCC(=O)N(O)CCCCCN` [compound 10, Desferrioxamine], the “growth inhibition of P. falciparum” value in assay [1] (50 µmol/l iron binding concentration, after 30 hours, Figure 2) is on record as not below 70%. For the same compound, the IC50 in assay [1] (Plasmodium falciparum, four dosage levels (iron binding concentration), same procedure as (A), read-out: ID50 (the source's name)) lay in the range of 10 to 20 µM. In addition, in assay [1] (iron binding concentration of 100 µmol of iron per litre, 30 hours, Figure 1), the “percentage inhibition of growth after 30 hours as compared with the controls” value is recorded as “more than 65%”. Further, the “red cell reinvasion (young ring parasites)” value is given as “always found” in assay [2] (10 µmol/l dosage level), “No evidence was found of reinvasion” in assay [2] (25 µmol/l dosage level), “No evidence was found of reinvasion” in assay [2] (50 µmol/l dosage level) and “No evidence was found of reinvasion” in assay [2] (100 µmol/l dosage level). Further, the “growth inhibition of MEL cells” value in assay [3] is reported as not below 80%.
